Laboratory results published in DBAASP.
Converted amounts (≈) assume the structure as drawn.

Columns and labels:
Experiment in all cases: ≥ marks a high value that may be exact or a test limit, other limits are often not marked, values filed in µg/mL are converted to µM
[1] = system: Bacillus subtilis KCTC 1918
[2] = system: Escherichia coli KCTC 1682
[3] = system: Pseudomonas aeruginosa KCTC 1637
[4] = system: Salmonella typhimurium KCTC 1926
[5] = system: Staphylococcus aureus KCTC 1621
[6] = system: Streptococcus pyogenes KCTC 3096
[7] = system: Bacillus megaterium KCTC 1096
Proteus vulgaris = system: Proteus vulgaris
Acinetobacter sp. 301 = system: Acinetobacter sp. 301
Acinetobacter sp. 312 = system: Acinetobacter sp. 312
Acinetobacter sp. 322 = system: Acinetobacter sp. 322
Candida albicans 4615 = system: Candida albicans 4615
Candida albicans 4748 = system: Candida albicans 4748
Candida albicans 4762 = system: Candida albicans 4762
Candida albicans SC5314 = system: Candida albicans SC5314
Candida albicans = system: Candida albicans
[8] = system: Candida glabrata ATCC 15126
Candida krusei ATCC 6258 = system: Candida krusei ATCC 6258
[9] = system: Candida parapsilosis ATCC 22019
Candida tropicalis 4345 = system: Candida tropicalis 4345
Candida tropicalis 4912 = system: Candida tropicalis 4912
[10] = system: Candida tropicalis ATCC 13803
Candida tropicalis = system: Candida tropicalis
[11] = system: Erwinia amylovora PMV 6076
Escherichia coli 207 = system: Escherichia coli 207
Escherichia coli 225 = system: Escherichia coli 225
Escherichia coli 35 = system: Escherichia coli 35
Escherichia coli 43 = system: Escherichia coli 43
[12] = system: Escherichia coli ATCC 25922
[13] = system: Klebsiella pneumoniae 202
[14] = system: Klebsiella pneumoniae 305
[15] = system: Klebsiella pneumoniae 341
[16] = system: Pseudomonas aeruginosa 302
[17] = system: Pseudomonas syringae pv. actinidiae Psa3700.1.1
[18] = system: Pseudomonas syringae pv. syringae EPS 94
[19] = system: Xanthomonas arboricola pv. pruni CFBP 5563
[20] = system: Xanthomonas campestris pv. Vesicatoria 2133-2
[21] = system: Xanthomonas fragariae Xf349-9A
Acinetobacter baumannii = system: Acinetobacter baumannii
[22] = system: Enterobacter cloacae 2524
[23] = system: Enterobacter cloacae 6780
Escherichia coli 170 = system: Escherichia coli 170
Escherichia coli 4530 = system: Escherichia coli 4530
[24] = system: Klebsiella pneumoniae 1625
[25] = system: Klebsiella pneumoniae 913
[26] = system: Pseudomonas aeruginosa 4677
[27] = system: Bacillus subtilis IFO 3143
[28] = system: Escherichia coli IFO 12734
[29] = system: Pseudomonas aeruginosa IFO 12582
[30] = system: Staphylococcus aureus IFO 12732

In the case of `CC[C@H](C)[C@H](NC(=O)[C@H](CCCCN)NC(=O)[C@H](CCCCN)NC(=O)[C@H](Cc1ccccc1)NC(=O)[C@H](CC(C)C)NC(=O)[C@H](CCCCN)NC(=O)[C@H](Cc1c[nH]c2ccccc12)NC(=O)[C@@H](N)CCCCN)C(=O)N1CCC[C@H]1C(=O)N[C@@H](CCCCN)C(=O)N[C@@H](Cc1ccccc1)C(=O)N[C@@H](CC(C)C)C(=O)N[C@@H](Cc1cnc[nH]1)C(=O)N[C@@H](CO)C(=O)N[C@@H](C)C(=O)N[C@@H](CCCCN)C(=O)N[C@@H](CCCCN)C(=O)N[C@@H](Cc1ccccc1)C(N)=O` [KWKLFKKIPKFLHSAKKF], the MIC [1] is reported as 1.56 µM (≈ 3.55 µg/mL), the MIC [2] is reported as 6.25 µM (≈ 14.2 µg/mL) and the MIC [3] is reported as 3.12 µM (≈ 7.11 µg/mL). For the same molecule, the MIC [4] was 0.78 µM (≈ 1.77 µg/mL), the MIC [5] was 3.12 µM (≈ 7.11 µg/mL) and the MIC [6] was 0.78 µM (≈ 1.77 µg/mL).

For `CC[C@H](C)[C@H](NC(=O)[C@H](CCCCN)NC(=O)[C@H](CCCCN)NC(=O)[C@H](Cc1ccccc1)NC(=O)[C@H](Cc1c[nH]c2ccccc12)NC(=O)[C@@H](N)CCCCN)C(=O)N1CCC[C@H]1C(=O)N[C@@H](CCCCN)C(=O)N[C@@H](Cc1ccccc1)C(=O)N[C@@H](CC(C)C)C(=O)N[C@@H](Cc1cnc[nH]1)C(=O)N[C@@H](CC(C)C)C(=O)N[C@@H](CC(C)C)C(=O)N[C@@H](CCCCN)C(=O)N[C@@H](CCCCN)C(=O)N[C@@H](Cc1ccccc1)C(N)=O` [KWFKKIPKFLHLLKKF], the MIC [7] was 0.78 µM (≈ 1.64 µg/mL), the MIC [1] was 0.78 µM (≈ 1.64 µg/mL) and the MIC [2] was 3.12 µM (≈ 6.56 µg/mL). The MIC (Proteus vulgaris) was 3.12 µM (≈ 6.56 µg/mL), the MIC [3] was 3.12 µM (≈ 6.56 µg/mL) and the MIC [5] was 1.56 µM (≈ 3.28 µg/mL).

For `CC(C)C[C@H](NC(=O)[C@H](CCC(N)=O)NC(=O)[C@H](CCCCN)NC(=O)[C@H](CCCN=C(N)N)NC(=O)[C@H](Cc1ccccc1)NC(=O)[C@@H](N)Cc1c[nH]c2ccccc12)C(=O)N[C@@H](CCCCN)C(=O)N[C@@H](Cc1c[nH]c2ccccc12)C(=O)O` [WFRKQLKW], the MIC (Acinetobacter sp. 301) was 2.37 µM (≈ 2.83 µg/mL), the MIC (Acinetobacter sp. 312) was 4.75 µM (≈ 5.66 µg/mL) and the MIC (Acinetobacter sp. 322) was 3.36 µM (≈ 4 µg/mL). It also gave an MIC (Candida albicans 4615) of no less than 42 µM, an MIC (Candida albicans 4748) of 21 µM (≈ 25 µg/mL) and an MIC (Candida albicans 4762) of no less than 83.9 µM. For the same molecule, the MIC (Candida albicans SC5314) was 10.5 µM (≈ 12.5 µg/mL), the MIC (Candida albicans) was 5.25 µM (≈ 6.25 µg/mL) and the MIC [8] was 21 µM (≈ 25 µg/mL). The MIC (Candida krusei ATCC 6258) was 21 µM (≈ 25 µg/mL), the MIC [9] was 5.25 µM (≈ 6.25 µg/mL) and the MIC (Candida tropicalis 4345) was 21 µM (≈ 25 µg/mL). For the same molecule, the MIC (Candida tropicalis 4912) was 10.5 µM (≈ 12.5 µg/mL), the MIC [10] was 21 µM (≈ 25 µg/mL) and the MIC (Candida tropicalis) was no less than 83.9 µM. For the same molecule, the MIC [11] was no less than 50 µM, the MIC (Escherichia coli 207) was 1.68 µM (≈ 2 µg/mL) and the MIC (Escherichia coli 225) was 0.839 µM (≈ 1 µg/mL). It also gave an MIC (Escherichia coli 35) of 6.71 µM (≈ 8 µg/mL), an MIC (Escherichia coli 43) of 3.36 µM (≈ 4 µg/mL) and an MIC [12] of 0.839 µM (≈ 1 µg/mL). The MIC [13] was 6.71 µM (≈ 8 µg/mL), the MIC [14] was 3.36 µM (≈ 4 µg/mL) and the MIC [15] was 1.68 µM (≈ 2 µg/mL). For the same molecule, the MIC [16] was 6.71 µM (≈ 8 µg/mL), the MIC [17] was no less than 50 µM and the MIC [18] was no less than 50 µM. The MIC [19] was no less than 50 µM, the MIC [20] was no less than 50 µM and the MIC [21] was no less than 50 µM.

Molecule `CC[C@H](C)[C@H](N)C(=O)N[C@@H](CCCCN)C(=O)N[C@@H](CO)C(=O)N[C@H](C(=O)N[C@@H](C)C(=O)N[C@@H](CO)C(=O)N[C@@H](CCCCN)C(=O)N[C@H](C(=O)N[C@@H](C)C(=O)N[C@@H](CC(N)=O)C(=O)N[C@H](C(=O)N[C@H](C(=O)N[C@@H](CCC(N)=O)C(=O)N[C@@H](CCCCN)C(=O)N[C@@H](CC(C)C)C(=O)N[C@@H](CCCCN)C(=O)N[C@@H](CCCN=C(N)N)C(=O)N[C@@H](CCCCN)C(=O)N[C@@H](C)C(=O)N[C@@H](CCCCN)C(=O)N[C@@H](CC(N)=O)C(=O)N[C@@H](C)C(=O)N[C@H](C(=O)N[C@@H](C)C(=O)O)C(C)C)C(C)C)[C@@H](C)O)C(C)C)[C@@H](C)CC` [IKSIASKVANTVQKLKRKAKNAVA] has an MIC (Acinetobacter baumannii) of 4.42 µM (≈ 11.3 µg/mL), an MIC [22] of 3.12 µM (≈ 8.01 µg/mL) and an MIC [23] of no less than 50 µM. The MIC (Escherichia coli 170) was 1.56 µM (≈ 4 µg/mL), the MIC (Escherichia coli 4530) was no less than 50 µM and the MIC [12] was 12.5 µM (≈ 32.1 µg/mL). It also gave an MIC [24] of 6.25 µM (≈ 16 µg/mL), an MIC [25] of no less than 50 µM and an MIC [26] of no less than 50 µM.

`CC(C)C[C@H](NC(=O)[C@H](Cc1ccc(O)cc1)NC(=O)[C@H](C)NC(=O)[C@@H](NC(=O)[C@H](CC(C)C)NC(=O)[C@H](C)NC(=O)[C@H](C)NC(=O)[C@H](CCCCN)NC(=O)CNC(=O)[C@@H](NC(=O)[C@H](C)NC(=O)[C@H](CCCCN)NC(=O)CNC(=O)[C@@H](NC(=O)[C@H](C)NC(=O)[C@H](C)NC(=O)[C@H](C)NC(=O)[C@H](CCCCN)NC(=O)[C@H](CCCCN)NC(=O)[C@H](Cc1ccccc1)NC(=O)[C@H](Cc1ccccc1)NC(=O)[C@H](CO)NC(=O)CNC(=O)[C@H](Cc1c[nH]c2ccccc12)NC(=O)CN)C(C)C)C(C)C)[C@@H](C)O)C(=O)O` [GWGSFFKKAAAVGKAVGKAALTAYL] was tested, and the MIC [27] was 3.18 µM (≈ 8 µg/mL), the MIC [28] was 6.37 µM (≈ 16 µg/mL) and the MIC [29] was 6.37 µM (≈ 16 µg/mL). The MIC [30] was 6.37 µM (≈ 16 µg/mL).
